32 compounds from the supplement of paper PMC11003180 can be followed below.

What all share (assay): drug sensitivity score (DSS) from 5-dose viability curve (DSS (area-based score, 0 = no response)); higher = more sensitive (stronger viability inhibition); extreme values may be limits of the assay
In experiment [1] the test system is MDCK wild-type - doxycycline. As to conditions: doxycycline: none; 72 h. The method in brief:
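Parental MDCK cells, grown without doxycycline, were seeded at 2000 cells/well into 384-well plates pre-spotted with an oncology library of 528 drugs at five doses (1-10,000 nM). After 72 h at 37 °C, CellTiter-Glo luminescence was read. Viability was scaled per plate between vehicle and positive controls, and drug sensitivity scores were derived from dose-response curve fits in the Breeze pipeline.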

Experiment [2] concerns MDCK p60AmotL2-inducible + doxycycline (p60AmotL2 expressing). As to conditions: doxycycline: 10 ng/mL; 72 h. The essentials:
(§1)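 After 72 h at 37 °C on 384-well plates pre-spotted with 528 oncology drugs at five doses (1-10,000 nM), parental and doxycycline-inducible MDCK cells were assessed; both lines had been given 10 ng/mL doxycycline in the medium before seeding at 2000 cells/well. Viability was taken from CellTiter-Glo luminescence scaled per plate to vehicle and positive controls, and drug sensitivity scores were derived from dose-response fits in the Breeze pipeline.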

Experiment [3] relates to MDCK wild-type + doxycycline. As to conditions: doxycycline: 10 ng/mL; 72 h. The essentials:
as §1

Take `CCCCNc1ncc(C(=O)NCc2ccc(-n3ccnc3)cc2)c(NC2CCC(O)CC2)n1` (stereo unspecified) [UNC2881]: the drug sensitivity score in experiment [1] was 0; in experiment [2], 1.9; in experiment [3], 0.
For the compound `NC(=O)c1cccc(-c2cccc(OC(=O)NC3CCCCC3)c2)c1` [URB597], the drug sensitivity score in experiment [1], in experiment [2] and in experiment [3] was 0 throughout.
Consider `CC(C)Nc1cc(-c2c[nH]c(C(=O)N[C@H](CO)c3cccc(Cl)c3)c2)c(Cl)cn1` [Ulixertinib], for which the results for the drug sensitivity score in experiment [1], in experiment [2] and in experiment [3] were 3.2, 9.6 and 4.9, respectively.
Take `CC[C@@H]1CN(C(=O)NCC(F)(F)F)C[C@@H]1c1cnc2cnc3[nH]ccc3n12` [Upadacitinib]: the drug sensitivity score in experiment [1], in experiment [2] and in experiment [3] was 0 throughout.
For `Cn1ncc(Cl)c1-c1cc(C(=O)N[C@H](CN)Cc2ccc(F)c(F)c2)oc1Cl` [Uprosertib], the drug sensitivity score in experiment [1], in experiment [2] and in experiment [3] was 0 each time.
In the case of `CS(=O)(=O)c1ccc(-c2cnc(N)c(C(=O)Nc3ccccc3)n2)cc1` [VE-821], the drug sensitivity score in experiment [1], in experiment [2] and in experiment [3] was 0 throughout.
As to `O=C(O)CC1CC(c2ccccc2)=NO1` (stereo unspecified) [VGX-1027], the drug sensitivity score in experiment [1], in experiment [2] and in experiment [3] was 0 in each case.
Regarding `C=CC(=O)N1CC/C(=C\c2ccc(F)c([N+](=O)[O-])c2)C(=O)/C(=C/c2ccc(F)c([N+](=O)[O-])c2)C1` [VLX1570], the drug sensitivity score in experiment [1] was found to be 15.5; in experiment [2], 17.2; in experiment [3], 17.3.
In the same order, the values of `CNC(=O)c1ccccc1Nc1cc(Nc2ccc(N3CCOCC3)cc2OC)ncc1C(F)(F)F` [VS-4718] are 3.6, 5.6 and 4.7.
For `CCCC(CCC)C(=O)O` [Valproic acid], the drug sensitivity score in experiment [1], in experiment [2] and in experiment [3] was 0 throughout.
Take `CCCCC(=O)OCC(=O)[C@]1(O)Cc2c(O)c3c(c(O)c2[C@@H](O[C@H]2C[C@H](NC(=O)C(F)(F)F)[C@H](O)[C@H](C)O2)C1)C(=O)c1c(OC)cccc1C3=O` [Valrubicin]: the drug sensitivity score was determined as 5.7 in experiment [1], 12.9 in experiment [2] and 8.8 in experiment [3].
Take `COc1cc2/c(=N/c3ccc(Br)cc3F)nc[nH]c2cc1OCC1CCN(C)CC1` [Vandetanib]: the drug sensitivity score in experiment [1] came out at 0; in experiment [2], 4.6; in experiment [3], 0.
For the compound `CCc1c(C(=O)C(N)=O)c2c(OCC(=O)O)cccc2n1Cc1ccccc1` [Varespladib], the drug sensitivity score in experiment [1], in experiment [2] and in experiment [3] was 0 each time.
Regarding `C[C@@H]1COC(Nc2ccc3ncnc(Nc4ccc(OCc5nccs5)c(Cl)c4)c3c2)=N1` [Varlitinib], the drug sensitivity score in experiment [1] was found to be 1.6; in experiment [2], 7.2; in experiment [3] it was 3.6.
In the same order, the values of `Clc1ccc(Nc2nnc(Cc3ccncc3)c3ccccc23)cc1` [Vatalanib] are 0, 0 and 0.
On to `C[C@]1(c2nc3c(C(N)=O)cccc3[nH]2)CCCN1` [Veliparib], for which the drug sensitivity score in experiment [1], in experiment [2] and in experiment [3] was 0 each time.
In the case of `CCCS(=O)(=O)Nc1ccc(F)c(C(=O)c2c[nH]c3ncc(-c4ccc(Cl)cc4)cc23)c1F` [Vemurafenib], the drug sensitivity score in experiment [1], in experiment [2] and in experiment [3] was 0 in each case.
For `CC1(C)CCC(CN2CCN(c3ccc(C(=O)NS(=O)(=O)c4ccc(NCC5CCOCC5)c([N+](=O)[O-])c4)c(Oc4cnc5[nH]ccc5c4)c3)CC2)=C(c2ccc(Cl)cc2)C1` [Venetoclax], the drug sensitivity score in experiment [1], in experiment [2] and in experiment [3] was 0 throughout.
Turning to `O=C(/C=C\n1cnc(-c2cc(C(F)(F)F)cc(C(F)(F)F)c2)n1)NNc1ccccn1` [Verdinexor], the values for the drug sensitivity score in experiment [1], in experiment [2] and in experiment [3] were 9.2, 10.1 and 10.6, respectively.
On to `CCCCOc1nc(N)c2c(n1)N(Cc1cccc(CN3CCCC3)c1)CC(=O)N2` [Vesatolimod], for which the drug sensitivity score in experiment [1], in experiment [2] and in experiment [3] was 0 each time.
Turning to `COc1cccc(-c2ccc(NC(=O)C3=C(C(=O)O)CCC3)c(F)c2)c1` [Vidofludimus], the drug sensitivity score in experiment [1] was 0.4; in experiment [2], 1.2; in experiment [3] it was 0.6.
In the same order, the values of `CC[C@]1(O)C[C@@H]2CN(CCc3c([nH]c4ccccc34)[C@@](C(=O)OC)(c3cc4c(cc3OC)N(C)[C@H]3[C@@](O)(C(=O)OC)[C@H](OC(C)=O)[C@]5(CC)C=CCN6CC[C@]43[C@@H]65)C2)C1` [Vinblastine] are 25.6, 25.2 and 24.
Regarding `CC[C@]1(O)C[C@H]2CN(CCc3c([nH]c4ccccc34)[C@@](C(=O)OC)(c3cc4c(cc3OC)N(C=O)[C@H]3[C@@](O)(C(=O)OC)[C@H](OC(C)=O)[C@]5(CC)C=CCN6CC[C@]43[C@@H]65)C2)C1` [Vincristine], the drug sensitivity score in experiment [1] came to 20.2; in experiment [2], 23.1; in experiment [3] it was 20.3.
In the same order, the values of `CC[C@]12C=CCN3CC[C@@]4(c5cc([C@@]6(C(=O)OC)C[C@@H]7C[C@@H](C(C)(F)F)CN(Cc8c6[nH]c6ccccc86)C7)c(OC)cc5N(C)[C@H]4[C@@](O)(C(=O)OC)[C@@H]1OC(C)=O)[C@@H]32` [Vinflunine] are 4.3, 3.3 and 3.7.
In the same order, the values of `CCC1=C[C@@H]2CN(C1)Cc1c([nH]c3ccccc13)[C@@](C(=O)OC)(c1cc3c(cc1OC)N(C)[C@H]1[C@@](O)(C(=O)OC)[C@H](OC(C)=O)[C@]4(CC)C=CCN5CC[C@]31[C@@H]54)C2` [Vinorelbine] are 29.8, 34.2 and 30.2.
In the case of `CS(=O)(=O)c1ccc(C(=O)Nc2ccc(Cl)c(-c3ccccn3)c2)c(Cl)c1` [Vismodegib], the drug sensitivity score in experiment [1], in experiment [2] and in experiment [3] was 0 in each case.
Consider `CNC(=O)c1cccc(-c2ccc3c(N4CCOC[C@@H]4C)nc(N4CCOC[C@@H]4C)nc3n2)c1` [Vistusertib], for which the results for the drug sensitivity score in experiment [1], in experiment [2] and in experiment [3] were 7.5, 15.5 and 10.5, respectively.
In the same order, the values of `CC[C@@H]1C(=O)N(C)c2cnc(Nc3ccc(C(=O)N[C@H]4CC[C@H](N5CCN(CC6CC6)CC5)CC4)cc3OC)nc2N1C(C)C` [Volasertib] are 16.6, 17.4 and 15.3.
In the case of `O=C(CCCCCCC(=O)Nc1ccccc1)NO` [Vorinostat], the drug sensitivity score in experiment [1] is 7.5; in experiment [2], 11.8; in experiment [3] it was 9.8.
In the same order, the values of `Oc1nc(-c2ccc(C(F)(F)F)cc2)nc2c1CSCC2` [XAV-939] are 0, 0 and 0.
As for `FC(F)c1nc2ccccc2n1-c1nc(N2CCOCC2)nc(N2CCOCC2)n1` [ZSTK474], the drug sensitivity score in experiment [1] stood at 4.7; in experiment [2], 10.3; in experiment [3], 7.2.
In the same order, the values of `Cc1sc2c(c1C)C(c1ccc(Cl)cc1)=N[C@@H](CC(=O)NCCCCNC(=O)COc1cccc3c1C(=O)N(C1CCC(=O)NC1=O)C3=O)c1nnc(C)n1-2` (stereo partly specified) [dBET1] are 9.5, 9.3 and 8.
